Marks after values point to notes of the source that are not given here.
Experiments:
[1] = Study S.241.1.110: pharmacokinetics in renal impairment, 2 mg TID; conditions: for AUC(0-τ) / Cmax / T½ / Tmax / Cmin: cilansetron 2 mg TID; for AUC(0-τ) / Cmax / T½ / Cmin: mean (%CV); for Tmax: median; for Cmin: Day 6 morning predose value
Method: The effect of renal impairment on the pharmacokinetics of cilansetron was evaluated in a study excluding subjects with end-stage renal disease, and utilizing a single-center, open-label, multiple-dose, parallel group study in 13 male and 9 female subjects, aged 33-74 years. […] Healthy subjects were matched to renally-impaired subjects with respect to age, weight, gender, and smoking status. All subjects received oral cilansetron 2 mg TID on Days 1 to 5, and a single dose on the morning of Day 6. Blood samples for measurement of plasma pharmacokinetics of cilansetron and its 4-hydroxy metabolites were collected up to 24 hours following dosing on Day 6, and log-transformed pharmacokinetic parameters for these analytes were statistically compared between study groups. Serum concentrations of unbound cilansetron and its 4-hydroxy metabolites were also measured prior to dosing and at 1 and 1.5 hours postdose on Day 6.

[2] = Study S.241.1.107: pharmacokinetics in hepatic impairment, 8 mg TID; conditions: for AUC(0-τ): AUC(0-8); for AUC(0-τ) / Cmax / T½: arith. mean (%CV); for Tmax: median
Method: The effect of hepatic impairment on the pharmacokinetics of cilansetron was evaluated in a multiple-dose, parallel group study in 14 healthy and 14 moderately to severely hepatically impaired male and female subjects, aged 41-70 years. Impaired subjects (Child-Pugh score 7 to 11) were matched to healthy subjects by age (±2 years), sex, menstrual status, and smoking history status. All subjects received oral cilansetron 8 mg TID on Days 1 to 5, and a single dose on the morning of Day 6. […] Blood samples were also collected at predose on Day 1, and at predose, 1 hour and 1.5 hours postdose on Day 6, for measurement of cilansetron protein binding in serum.

[3] = Study S.241.1.110: ex vivo protein binding in serum, healthy and renally impaired; conditions: for Fraction unbound ratio All Renal Groups Combined:Healthy / Fraction unbound ratio Mild:Healthy / Fraction unbound ratio Moderate:Healthy / Fraction unbound ratio Severe:Healthy: ratio (90% CI)
Method: The ex vivo protein binding of cilansetron and its 4-hydroxy metabolites has been measured in serum samples collected in a multiple-dose study in healthy and renally impaired male and female subjects, aged 33-74 years. […] Healthy subjects were matched to renally-impaired subjects with respect to age, weight, gender, and smoking status. All subjects received oral cilansetron 2 mg TID on Days 1 to 5, and a single dose on the morning of Day 6.

[4] = Study S.241.1.109: interaction with ketoconazole 200 mg BID; assay type: in vivo, human; conditions: for AUC(0-τ) / Cmax / Tmax: steady state; for AUC(0-τ): AUC(0-8); for AUC(0-τ) / Cmax: arith. mean; for Tmax: median
Method: In an open-label, randomized, parallel-group study in three groups of 12 healthy, male and female subjects (aged 19 to 45 years), subjects received a 2 mg single dose of cilansetron on Day 1, 2 mg TID on Days 2-13, and a 2 mg single dose on Day 14. […] All morning doses of cilansetron and enzyme inhibitors were administered immediately after a standard breakfast. […] For each treatment group, log-transformed cilansetron AUC(0-τ) and Cmax values on Day 14 (cilansetron+enzyme inhibitor) were compared statistically versus values on Day 7 (cilansetron alone).

[5] = moderate renal impairment, Day 6
[6] = geometric LS mean ratio impaired/healthy, cilansetron 8 mg TID oral
[7] = healthy, cilansetron 8 mg TID oral
[8] = hepatically impaired, cilansetron 8 mg TID oral
[9] = Cilansetron 2 mg TID + Ketoconazole 200 mg twice daily
[10] = Cilansetron 2 mg TID alone (ketoconazole group)
[11] = cilansetron + ketoconazole / cilansetron alone, ANOVA of log-transformed data

Cc1nccn1CC1CCc2c(c3cccc4c3n2CC[C@H]4O)C1=O (stereo partly drawn) [(4R)-hydroxy cilansetron]
Plasma Conc. ([1]; Day 6 1 h, Healthy): 3.90 (37) ng/mL
Plasma Conc. ([1]; Day 6 1 h, Mild): 4.86 (39) ng/mL
Plasma Conc. ([1]; Day 6 1 h, Moderate): 3.94 (32) ng/mL
Plasma Conc. ([1]; Day 6 1 h, Severe): 7.67 (38) ng/mL
AUC(0-τ) ratio Mild/Healthy ([1]; Day 6, geometric LS mean ratio (90% CI)): 118 (90, 153) %
AUC(0-τ) ratio Moderate/Healthy ([1]; Day 6, ratio (90% CI)): 137 (104, 182) %
AUC(0-τ) ratio Renal Combined/Healthy ([1]; Day 6, ratio (90% CI)): 166 (136, 204)* %
AUC(0-τ) ratio Severe/Healthy ([1]; Day 6, ratio (90% CI)): 284 (215, 377)* %
Cmax ratio Mild/Healthy ([1]; Day 6, ratio (90% CI)): 134 (101, 177) %
Cmax ratio Moderate/Healthy ([1]; Day 6, ratio (90% CI)): 137 (102, 185) %
Cmax ratio Renal Combined/Healthy ([1]; Day 6, ratio (90% CI)): 158 (127, 196)* %
Cmax ratio Severe/Healthy ([1]; Day 6, ratio (90% CI)): 215 (159, 290)* %
T½ ratio Mild/Healthy ([1]; Day 6, ratio (90% CI)): 109 (84, 142) %
T½ ratio Moderate/Healthy ([1]; Day 6, ratio (90% CI)): 129 (97, 171) %
T½ ratio Renal Combined/Healthy ([1]; Day 6, ratio (90% CI)): 140 (114, 172)* %
T½ ratio Severe/Healthy ([1]; Day 6, ratio (90% CI)): 195 (147, 259)* %
Plasma Conc. ([1]; Day 6 […], Healthy): 3.79 (20) ng/mL
Plasma Conc. ([1]; Day 6 […], Mild): 3.86 (20) ng/mL
Plasma Conc. ([1]; Day 6 […], Moderate): 4.75 (28) ng/mL
Plasma Conc. ([1]; Day 6 […], Severe): 7.87 (38) ng/mL
AUC(0-τ) ([1]; healthy subjects, Day 6): 18.7 (21) ng · h/mL
Cmax ([1]; healthy subjects, Day 6): 4.30 (33) ng/mL
T½ ([1]; healthy subjects, Day 6): 7.05 (21) h
Tmax ([1]; healthy subjects, Day 6): 1.25 h
Cmin ([1]; healthy subjects): 1.56 (24) ng/mL
Exposure increase with severe renal impairment ([1]; in vivo): 2-3 fold
Mean AUC(0-τ) increase vs healthy ([1]; mild impairment): 18%
Mean Cmax increase vs healthy ([1]; mild impairment): 34%
AUC(0-τ) ([1]; mild renal impairment, Day 6): 21.6 (9) ng · h/mL
Cmax ([1]; mild renal impairment, Day 6): 5.66 (25) ng/mL
T½ ([1]; mild renal impairment, Day 6): 7.93 (38) h
Tmax ([1]; mild renal impairment, Day 6): 1.25 h
Cmin ([1]; mild renal impairment): 1.68 (24) ng/mL
Mean AUC(0-τ) increase vs healthy ([1]; moderate impairment): 37%
Mean Cmax increase vs healthy ([1]; moderate impairment): 37%
AUC(0-τ) [1, 5]: 26.3 (34) ng · h/mL
Cmax [1, 5]: 5.83 (28) ng/mL
T½ [1, 5]: 9.32 (36) h
Tmax [1, 5]: 1.25 h
Cmin ([1]; moderate renal impairment): 2.06 (40) ng/mL
Mean AUC(0-τ) increase vs healthy ([1]; severe impairment): 184%
Mean Cmax increase vs healthy ([1]; severe impairment): 115%
AUC(0-τ) ([1]; severe renal impairment, Day 6): 55.8 (45) ng · h/mL
Cmax ([1]; severe renal impairment, Day 6): 9.35 (39) ng/mL
T½ ([1]; severe renal impairment, Day 6): 13.9 (30) h
Tmax ([1]; severe renal impairment, Day 6): 1.50 h
Cmin ([1]; severe renal impairment): 4.36 (36) ng/mL
AUC(0-τ) Ratio [2, 6]: 0.86
Cmax Ratio [2, 6]: 0.70
AUC(0-τ), Geom. LS Mean [2, 7]: 57.4 ng·h/mL
Cmax, Geom. LS Mean [2, 7]: 13.2 ng/mL
AUC(0-τ) [2, 7]: 62.7 (32) ng · h/mL
Cmax [2, 7]: 14.1 (28) ng/mL
T½ [2, 7]: 6.38 (18) h
Tmax [2, 7]: 1.00 h
AUC(0-τ), Geom. LS Mean [2, 8]: 49.4 ng·h/mL
Cmax, Geom. LS Mean [2, 8]: 9.30 ng/mL
AUC(0-τ) [2, 8]: 53.7 (40) ng · h/mL
Cmax [2, 8]: 11.1 (62) ng/mL
T½ [2, 8]: 10.0 (41) h
Tmax [2, 8]: 1.50 h
AUC(0-τ) decrease with hepatic impairment ([2]; in vivo): 14%
Cmax decrease with hepatic impairment ([2]; in vivo): 30%
Fraction unbound ratio All Renal Groups Combined:Healthy ([3]; 1 h): 121 (109, 134)^b %
Fraction unbound ratio Mild:Healthy ([3]; 1 h): 106 (93, 121) %
Fraction unbound ratio Moderate:Healthy ([3]; 1 h): 137 (119, 157)^b %
Fraction unbound ratio Severe:Healthy ([3]; 1 h): 121 (105, 140)^b %
Fraction Unbound in Serum ([3]; Day 6 1 h, Healthy): 24.7 (7) %
Fraction Unbound in Serum ([3]; Day 6 1 h, Mild): 26.4 (14) %
Fraction Unbound in Serum ([3]; Day 6 1 h, Moderate): 34.3 (22) %
Fraction Unbound in Serum ([3]; Day 6 1 h, Severe): 30.2 (18) %
Fraction Unbound in Serum ([3]; Day 6 […], Healthy): 27.6 (15) %
Fraction Unbound in Serum ([3]; Day 6 […], Mild): 26.2 (17) %
Fraction Unbound in Serum ([3]; Day 6 […], Moderate): 28.5 (13) %
Fraction Unbound in Serum ([3]; Day 6 […], Severe): 23.7 (11) %
Fraction Unbound in Serum ([3]; Day 6 predose, Healthy): 25.3 (11) %
Fraction Unbound in Serum ([3]; Day 6 predose, Mild): 29.6 (30) %
Fraction Unbound in Serum ([3]; Day 6 predose, Moderate): 31.0 (21) %
Fraction Unbound in Serum ([3]; Day 6 predose, Severe): 32.4 (17) %
Fraction unbound ratio All Renal Groups Combined:Healthy ([3]; […]): 95 (85, 105) %
Fraction unbound ratio Mild:Healthy ([3]; […]): 95 (83, 109) %
Fraction unbound ratio Moderate:Healthy ([3]; […]): 104 (90, 120) %
Fraction unbound ratio Severe:Healthy ([3]; […]): 86 (74, 100) %
Protein bound on average ([3]; healthy subjects): 72.4-75.3%
Fraction unbound ratio All Renal Groups Combined:Healthy ([3]; predose): 121 (105, 139)^b %
Fraction unbound ratio Mild:Healthy ([3]; predose): 114 (96, 137) %
Fraction unbound ratio Moderate:Healthy ([3]; predose): 122 (100, 147) %
Fraction unbound ratio Severe:Healthy ([3]; predose): 128 (105, 155)^b %
Plasma protein bound ([3]; therapeutic concentration range): 72-75%
AUC(0-τ) [4, 9]: 20.8 ng·h/mL
Cmax [4, 9]: 5.11 ng/mL
Tmax [4, 9]: 1.50 h
AUC(0-τ) [4, 10]: 12.2 ng·h/mL
Cmax [4, 10]: 2.48 ng/mL
Tmax [4, 10]: 2.00 h
AUC(0-τ) Ratio (Treatment B/A) [4, 11]: 176%
Cmax Ratio (Treatment B/A) [4, 11]: 209%

Reference: US20090176817A1, “Method of Treatment of Diarrhea-Predominant Irritable Bowel Syndrome in a Subject” (priority 2005, published 2009)
